How the values were obtained:
umami taste = assay: Effect on umami taste, intensity scale 0 to 10 (panelists); format: in vivo, human; details: 20 ppm in MSG in water (0.05% by weight); scale 0 to 10, control anchored as 5
Experimental: (§1) The effect of guanine and its nucleobase analog adenine on other basic tastes was examined and compared. The control solutions were prepared as follows:
(iv) An umami control solution of monosodium glutamate (MSG) in water (0.05% by weight).
(§2) Respective test solutions of adenine and guanine were prepared in different control solutions (2 or 20 ppm).
(§3) The taste perception of each sample was evaluated by a group of panelists using an intensity scale of 0 to 10, where 0=none, 5=moderate, 10=extremely strong. Panelists were instructed to anchor the intensity of the control solutions as 5 on the scale. The intensity scores were analyzed using one-way ANOVA with Post Hoc LSD multiple comparisons. Average intensity scores are reported in the following:
(§4) The effect of guanosine and its corresponding nucleotide, guanosine 5′-monophosphate (GMP), on additional basic tastes was examined and compared. The control solutions of sweet, bitter, salty and umami tastes were prepared as above in Example II. Respective test solutions of guanosine and GMP were prepared in different control solutions (2 or 20 ppm).

salty taste = assay: Effect on salty taste, intensity scale 0 to 10 (panelists); format: in vivo, human; details: 20 ppm in sodium chloride in water (0.3% by weight); scale 0 to 10, control anchored as 5
Experimental: as §1
(iii) A salty control solution of sodium chloride in water (0.3% by weight); and
as §2, §3, §4

sweet taste = assay: Effect on sweet taste, intensity scale 0 to 10 (panelists); format: in vivo, human; details: 20 ppm in sucrose in water (2.5% by weight); scale 0 to 10, control anchored as 5
Experimental: as §1
(i) A sweet control solution of sucrose in water (2.5% by weight);
as §2, §3, §4

sour taste [1] = assay: Sour taste intensity score in citric acid base solution, scale 0 to 10 (panelists); format: in vivo, human; details: scale 0 to 10, base anchored as 5
Experimental: The effect of adenine and guanine on sour taste was examined and compared. Respective test sample solutions of adenine and guanine were prepared in the base solution (each of 5 and 100 ppb, respectively).
as §3, with “The sour taste perception” for “The taste perception”, “of the base solution as 5” for “of the control solutions as 5”, “the following: […]” for “the following:”

bitter taste = assay: Effect on bitter taste, intensity scale 0 to 10 (panelists); format: in vivo, human; details: 2 ppm in caffeine in water (0.05% by weight); scale 0 to 10, control anchored as 5
Experimental: as §1
(ii) A bitter control solution of caffeine in water (0.05% by weight);
as §2, §3, §4

sour taste [2] = assay: Paired comparison of sour taste, test sample solution vs citric acid base solution (sensory panel); format: in vivo, human; details: for Sour taste enhancement, in words (table footnote): 5 and 100 ppb in base solution (citric acid 400 ppm); for Result (sour taste vs base solution): paired comparison
Experimental: The enhancement of sour taste by guanine and guanosine was subsequently examined. A base solution of citric acid (HOC(COOH)(CH2COOH)2) in water (400 ppm) was prepared and used in the following examples of the present invention. Test sample solutions of guanine and guanosine were prepared in the base solution (each of 5 and 100 ppb, respectively).
(§5) Sample pairs (a base solution and a test sample solution) were presented in a blind and pseudorandom order to a sensory panel. The enhancement of sour taste was recorded based on the percentage of the panelists who ranked the sample sourer. Binomial statistical analysis was used to compare the enhancement of sour taste for each sample pair. Significance was at 95% Confidence Interval (p<0.05). The test results are as follows:
The effect of botanical extract such as Chrysanthemum parthenium extract on sour taste was examined. A test sample solution of the extract in the base solution (15 ppm) was prepared.
Sensory evaluation was conducted using the paired comparison method. A base solution and a test sample solution, unidentifiable by using 3-digit codes, were presented in a blind and pseudorandom order to a sensory panel. The enhancement of sour taste was recorded based on the percentage of the panelists who ranked the sample sourer. The data were analyzed using binomial statistical analysis.

[3] = Taste description of the compound alone in water; format: in vivo, human; details: 1 ppm
sour taste [4] = assay: Paired comparison of sour taste against control solution of citric acid 450 ppm (sensory panel); format: in vivo, human
Experimental: A control sample solution of citric acid in water (450 ppm) and a test sample solution of guanosine in the base solution (1.25 ppm) were prepared. Sample pairs of (i) a base solution and a control sample solution; and (ii) a test sample solution and a control sample solution were each presented in a blind and pseudorandom order to a sensory panel. The enhancement of sour taste was recorded based on the percentage of the panelists who ranked the sample sourer.

[5] = pH level of sample solutions; format: physicochemical
sour taste [6] = assay: Paired comparison of sour taste, GMP solution vs guanosine solution (sensory panel); format: in vivo, human
Experimental: The effect of guanosine and GMP on sour taste was examined and compared. Respective test sample solutions of GMP and guanosine were prepared in the base solution (each of 5 and 100 ppb, respectively).
as §5, with “(a GMP” for “(a base”, “a guanosine” for “a test sample”, “(p<0.05).” for “(p<0.05). The test results are as follows:”

[7] = 5 ppb in base solution (citric acid 400 ppm)
[8] = 100 ppb in base solution (citric acid 400 ppm)
[9] = 5 ppb in base solution (citric acid in water, 400 ppm)
[10] = 100 ppb in base solution (citric acid in water, 400 ppm)
[11] = guanosine 1.25 ppm in base solution (citric acid 400 ppm)

SMILES	Umami, average intensity score (umami taste)	Salty, average intensity score (salty taste)	Sweet, average intensity score (sweet taste)	Intensity Score (sour taste) (sour taste [1]; [7])	Intensity Score (sour taste) (sour taste [1]; [8])	Bitter, average intensity score (bitter taste)	Sour taste enhancement, in words (table footnote) (sour taste [2])	Result (sour taste vs base solution) (sour taste [2]; [9])	Result (sour taste vs base solution) (sour taste [2]; [10])	Sour taste of the compound itself [3]	Taste description [3]	Sour taste enhancement and pH, in words (sour taste [4]; [11])	Sour taste enhancement compared with additional citric acid, in words (sour taste [4]; [11])	Panelist Selection (%), ranked sourer (sour taste [4]; test (citric acid 400 ppm + guanosine 1.25 ppm) vs control (citric acid 450 ppm)) [%]	pH Level ([5]; test solution: citric acid 400 ppm + guanosine 1.25 ppm (base alone pH 3.19))	Result (which solution of the pair tasted sourer) (sour taste [6]; 5 ppb each in base solution (citric acid 400 ppm))	Result (which solution of the pair tasted sourer) (sour taste [6]; 100 ppb each in base solution (citric acid 400 ppm))	Panelist Selection (%), ranked sourer (sour taste [4]; control (citric acid 450 ppm) vs base (citric acid 400 ppm)) [%]	Panelist Selection (%), ranked sourer (sour taste [4]; control (citric acid 450 ppm) vs test (citric acid 400 ppm + guanosine 1.25 ppm)) [%]	pH Level ([5]; control solution: citric acid in water, 450 ppm)
Nc1ncnc2nc[nH]c12 [Adenine, adenine, reference compound]	5.02	5.16	5.76	5.14	5.73	6.33														
Nc1nc2c(ncn2[C@@H]2O[C@H](COP(=O)(O)O)[C@@H](O)[C@H]2O)c(=O)[nH]1 [GMP, guanosine 5′-monophosphate, reference compound]	9.60	5.34	5.42			6.50														
Nc1nc2nc[nH]c2c(=O)[nH]1 [Guanine, guanine]	4.82	5.06	4.80	6.44	7.08	6.50	*Guanine and guanosine provided intense and lasting sour taste enhancement.	Sourer than the base solution	Sourer than the base solution	Neither guanine nor guanosine possessed sour taste	somewhat astringent, mouth-drying and mouth-coating									
Nc1nc2c(ncn2[C@@H]2O[C@H](CO)[C@@H](O)[C@H]2O)c(=O)[nH]1 [Guanosine, guanosine]	4.98	5.22	5.52			7.00	*Guanine and guanosine provided intense and lasting sour taste enhancement.	Sourer than the base solution	Sourer than the base solution	Neither guanine nor guanosine possessed sour taste	somewhat astringent, mouth-drying and slightly bitter	enhanced sour taste without decreasing the pH level	greater than that was achieved by 50 ppm citric acid	100	3.20	Guanosine solution tasted sourer	Guanosine solution tasted sourer			
O=C(O)CC(O)(CC(=O)O)C(=O)O [citric acid, reference compound]																		100	0	3.17

Reference: US20190364943A1, “NOVEL COMPOSITIONS FOR FLAVOR ENHANCEMENT” (International Flavors & Fragrances Inc., priority 2016, published 2019)
